The assay deals with BDF1 mice, B16 melanoma ip, median survival T/C. As to the kind of experiment: NCI In Vivo Anticancer Drug Screen. Data for tumor model B16 Melanoma (intraperitoneal) in B6D2F1 (BDF1) mice. The settings on record: endpoint: median survival time, higher = longer survival. The essentials:
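Values are ratios of treated (T) to vehicle-control (C) measurements of survival or tumor size in tumor-bearing mice.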

Where [1] appears, read: dose: 100.0 mg/kg/injection, schedule: Q01DX009 (ip), vehicle: Klucel (hydroxypropylcellulose) (HPC).
Where [2] appears, read: dose: 200.0 mg/kg/injection, schedule: Q01DX009 (ip), vehicle: Klucel (hydroxypropylcellulose) (HPC).
Setting [3] is: dose: 0.25 mg/kg/injection, schedule: Q01DX009 (ip), vehicle: Klucel (hydroxypropylcellulose) (HPC).
Setting [4] is: dose: 0.5 mg/kg/injection, schedule: Q01DX009 (ip), vehicle: Klucel (hydroxypropylcellulose) (HPC).
Where [5] appears, read: dose: 1.0 mg/kg/injection, schedule: Q01DX009 (ip), vehicle: Klucel (hydroxypropylcellulose) (HPC).
[6] abbreviates: dose: 2.0 mg/kg/injection, schedule: Q01DX009 (ip), vehicle: Klucel (hydroxypropylcellulose) (HPC).
Where [7] appears, read: dose: 25.0 mg/kg/injection, schedule: Q01DX009 (ip), vehicle: saline with Tween-80.
The mark [8] stands for this setting: dose: 50.0 mg/kg/injection, schedule: Q01DX009 (ip), vehicle: saline with Tween-80.
Setting [9] is: dose: 100.0 mg/kg/injection, schedule: Q01DX009 (ip), vehicle: saline with Tween-80.
Where [10] appears, read: dose: 12.5 mg/kg/injection, schedule: Q01DX009 (ip), vehicle: saline with Tween-80.
Where [11] appears, read: dose: 50.0 mg/kg/injection, schedule: Q01DX009 (ip), vehicle: Klucel (hydroxypropylcellulose) (HPC).
The mark [12] stands for this setting: dose: 200.0 mg/kg/injection, schedule: Q01DX009 (ip), vehicle: saline with Tween-80.
Where [13] appears, read: dose: 400.0 mg/kg/injection, schedule: Q01DX009 (ip), vehicle: saline with Tween-80.

Molecules are shown by their SMILES. Where “and” joins values, the source holds several entries; their conditions need not be identical. Equal entries are not always repeated. Inconclusive results and toxic doses are left out.

Consider `CCC/C=C/C=C\C(=O)O[C@@H]1[C@@H](C)[C@]2(O)[C@@H]3C=C(C)C(=O)[C@H]3CC(COC(C)=O)=C[C@H]2[C@@H]2C(C)(C)[C@]12OC(C)=O`, for which the T/C is 107 % of control (dose: 0.75 mg/kg/injection, schedule: Q01DX009 (ip), vehicle: saline + alcohol); 105 % of control (dose: 1.5 mg/kg/injection, schedule: Q01DX009 (ip), vehicle: saline + alcohol); 113 % of control (dose: 3.0 mg/kg/injection, schedule: Q01DX009 (ip), vehicle: saline + alcohol); 113 % of control (dose: 6.0 mg/kg/injection, schedule: Q01DX009 (ip), vehicle: saline + alcohol).
As to `Cc1ccc(Cl)cc1NC(=O)c1ccccc1Cl`, the T/C by setting is: under setting [1], 108 % of control; under setting [2], 98 % of control.
As to `Cn1c(=O)c2[nH]c(Cc3ccc4c(c3)OCO4)nc2n(C)c1=O`, the T/C runs as follows: under setting [3], 96 % of control; under setting [4], 94 % of control; under setting [5], 96 % of control; under setting [6], 93 % of control.
Regarding `N#Cc1ccc(Br)cc1[N+](=O)[O-]`, the T/C (dose: 0.39 mg/kg/injection, schedule: Q01DX009 (ip), vehicle: Klucel (hydroxypropylcellulose) (HPC)) was 93 % of control; the T/C (dose: 0.78 mg/kg/injection, schedule: Q01DX009 (ip), vehicle: Klucel (hydroxypropylcellulose) (HPC)) is 93 % of control; the T/C (dose: 1.56 mg/kg/injection, schedule: Q01DX009 (ip), vehicle: Klucel (hydroxypropylcellulose) (HPC)) is 106 % of control.
Consider `CSc1ncnc2c1ncn2C1OC(CO)C(O)C1O` (stereo not given), for which the T/C runs as follows: (dose: 2.0 mg/kg/injection, schedule: Q01DX009 (ip), vehicle: saline sonified) 95 % of control; (dose: 4.0 mg/kg/injection, schedule: Q01DX009 (ip), vehicle: saline sonified) 88 % of control; (dose: 7.5 mg/kg/injection, schedule: Q01DX009 (ip), vehicle: saline with Tween-80) 100 % of control; (dose: 8.0 mg/kg/injection, schedule: Q01DX009 (ip), vehicle: saline sonified) 86 % of control; (dose: 15.0 mg/kg/injection, schedule: Q01DX009 (ip), vehicle: saline with Tween-80) 97 % of control; (dose: 16.0 mg/kg/injection, schedule: Q01DX009 (ip), vehicle: saline sonified) 95 % of control.
Regarding `Cc1ccc(N)c(Br)c1`, the T/C is, setting by setting: under setting [7], 88 % of control; under setting [8], 88 % of control; under setting [9], 91 % of control.
As for `CSCCC(C#N)(CCN(C)C)c1ccccc1` (stereo not given), the T/C reads like this: under setting [7], 113 % of control; under setting [8], 107 % of control; under setting [9], 111 % of control.
For the molecule `CCOC(=O)/N=[N+](\[O-])c1ccccc1`, the T/C was 97 % of control (dose: 3.12 mg/kg/injection, schedule: Q01DX009 (ip), vehicle: saline with Tween-80); 100 % of control (dose: 6.25 mg/kg/injection, schedule: Q01DX009 (ip), vehicle: saline with Tween-80); 105 % of control under setting [10]; 104 % of control under setting [7].
As to `O=[N+]([O-])c1cccnc1Oc1cccc(C(F)(F)F)c1`, the T/C is, setting by setting: (dose: 135.0 mg/kg/injection, schedule: Q04DX003 (ip), vehicle: Klucel (hydroxypropylcellulose) (HPC)) 110 % of control; (dose: 195.0 mg/kg/injection, schedule: Q04DX003 (ip), vehicle: Klucel (hydroxypropylcellulose) (HPC)) 115 % of control; (dose: 450.0 mg/kg/injection, schedule: Q04DX003 (ip), vehicle: Klucel (hydroxypropylcellulose) (HPC)) 100 % of control.
As to `CNC(=S)NCc1ccc(C(=O)NC(C)C)cc1`, the T/C is 101 % of control (dose: 25.0 mg/kg/injection, schedule: Q01DX009 (ip), vehicle: Klucel (hydroxypropylcellulose) (HPC)); 99 % of control under setting [11]; 118 % of control under setting [1]; 118 % of control under setting [2].
In the case of `O=C1NC(=O)/C(=C/C=C/c2ccccc2)S1`, the T/C reads like this: under setting [10], 99 % of control and 114 % of control; under setting [7], 97 % of control and 115 % of control; under setting [8], 99 % of control and 103 % of control; under setting [9], 99 % of control and 108 % of control; under setting [12], 114 % of control; under setting [13], 98 % of control.
Regarding `CCOC(=O)c1ccc(NCC#N)cc1`, the T/C reads like this: under setting [9], 94 % of control; under setting [12], 97 % of control; under setting [13], 105 % of control.
As for `CC(=Nc1ccccc1)C1=C(O)C(CC(C)C)NC1=O` (stereo not given), the T/C is, setting by setting: under setting [8], 107 % of control; under setting [9], 103 % of control; under setting [12], 96 % of control; under setting [13], 88 % of control.
As to `O=C(NCCCN1CCN(CCCNC(=O)c2cccnc2)CC1)c1cccnc1`, the T/C was 107 % of control (dose: 6.25 mg/kg/injection, schedule: Q01DX009 (ip), vehicle: saline); 107 % of control (dose: 12.5 mg/kg/injection, schedule: Q01DX009 (ip), vehicle: saline); 112 % of control (dose: 25.0 mg/kg/injection, schedule: Q01DX009 (ip), vehicle: saline); 104 % of control (dose: 50.0 mg/kg/injection, schedule: Q01DX009 (ip), vehicle: saline); 95 % of control (dose: 100.0 mg/kg/injection, schedule: Q01DX009 (ip), vehicle: saline).
With `CC(=O)OC1C(O)C(C)OC(OC2C(OC(=O)C3CCC4C(C3)OC3(CC(OC(=O)/C=C/c5ccccc5)C(C)CO3)C43CO3)OC(C)C(O)C2OC(C)=O)C1O` (stereo not given), the T/C is, setting by setting: (dose: 0.5 mg/kg/injection, schedule: Q01DX009 (ip), vehicle: saline + alcohol) 110 % of control; (dose: 1.0 mg/kg/injection, schedule: Q01DX009 (ip), vehicle: saline + alcohol) 120 % of control; (dose: 8.0 mg/kg/injection, schedule: Q01DX009 (ip), vehicle: saline + alcohol) 152 % of control and 158 % of control; (dose: 16.0 mg/kg/injection, schedule: Q01DX009 (ip), vehicle: saline + alcohol) 151 % of control.
Regarding `CC1=CCC2(C)C(=O)CC3(C)C(CCC4C5(C)CCC(=O)C(C)(C)C5CCC43C)C2C1C` (stereo not given), the T/C is 100 % of control (dose: 1.75 mg/kg/injection, schedule: Q01DX008 (ip), vehicle: saline); 100 % of control (dose: 3.5 mg/kg/injection, schedule: Q01DX008 (ip), vehicle: saline); 94 % of control (dose: 7.0 mg/kg/injection, schedule: Q01DX008 (ip), vehicle: saline); 99 % of control (dose: 14.0 mg/kg/injection, schedule: Q01DX008 (ip), vehicle: saline).
With `Cc1cc(N(CCCl)CCCl)ccc1C=Nc1cccnc1`, the T/C runs as follows: under setting [8], 119 % of control; under setting [9], 124 % of control.
Regarding `Cc1cc(C)nc(NC(=O)COc2ccc(Cl)cc2)c1`, the T/C runs as follows: (dose: 12.5 mg/kg/injection, schedule: Q01DX009 (ip), vehicle: Klucel (hydroxypropylcellulose) (HPC)) 97 % of control; under setting [11], 97 % of control and 106 % of control.
In the case of `Cc1cc2c(C(C)C)c(O)c(O)c(C=O)c2c(O)c1-c1c(C)cc2c(C(C)C)c(O)c(O)c(C=O)c2c1O`, the T/C under setting [3] was 93 % of control; the T/C under setting [4] was 91 % of control; the T/C under setting [5] was 96 % of control; the T/C under setting [6] was 104 % of control; the T/C (dose: 4.0 mg/kg/injection, schedule: Q01DX009 (ip), vehicle: Klucel (hydroxypropylcellulose) (HPC)) was 91 % of control; the T/C (dose: 8.0 mg/kg/injection, schedule: Q01DX009 (ip), vehicle: Klucel (hydroxypropylcellulose) (HPC)) is 91 % of control.
On to `CCCCCCOCCN1CCN(CCCN2c3ccccc3Sc3ccc(C(F)(F)F)cc32)CC1`, for which the T/C was 112 % of control (dose: 0.5 mg/kg/injection, schedule: Q01DX009 (ip), vehicle: saline with Tween-80); 109 % of control (dose: 1.0 mg/kg/injection, schedule: Q01DX009 (ip), vehicle: saline with Tween-80); 109 % of control (dose: 2.0 mg/kg/injection, schedule: Q01DX009 (ip), vehicle: saline with Tween-80).
`CCOC(=O)c1ccc(NC(=O)Nc2ccc(Cl)cc2)cc1`: the T/C is 106 % of control under setting [1]; 106 % of control under setting [2]; 100 % of control (dose: 400.0 mg/kg/injection, schedule: Q01DX009 (ip), vehicle: Klucel (hydroxypropylcellulose) (HPC)).
For the molecule `O=CNC(Cc1cnc[nH]1)C(=O)O` (stereo not given), the T/C runs as follows: under setting [8], 102 % of control; under setting [9], 100 % of control; under setting [12], 103 % of control; under setting [13], 100 % of control.
`C=CS(=O)(=O)c1ccccc1`: the T/C reads like this: under setting [10], 96 % of control; under setting [7], 94 % of control; under setting [8], 98 % of control.

The values are drawn from PubChem BioAssay AID192 (DTP/NCI, 2004).
